This note sets out measurements from patent US5618812A, “Benzodiazepine derivatives” (Merck Sharp & Dohme, Ltd., priority 1992, dated 1997).

One assay has as its target T1, CCK-B (Cavia porcellus, UniProt H0VZC5).
T1 construct: guinea pig brain (CCK-B); from tissue; host or cells: guinea pig brain
T1 sequence (H0VZC5 1-426): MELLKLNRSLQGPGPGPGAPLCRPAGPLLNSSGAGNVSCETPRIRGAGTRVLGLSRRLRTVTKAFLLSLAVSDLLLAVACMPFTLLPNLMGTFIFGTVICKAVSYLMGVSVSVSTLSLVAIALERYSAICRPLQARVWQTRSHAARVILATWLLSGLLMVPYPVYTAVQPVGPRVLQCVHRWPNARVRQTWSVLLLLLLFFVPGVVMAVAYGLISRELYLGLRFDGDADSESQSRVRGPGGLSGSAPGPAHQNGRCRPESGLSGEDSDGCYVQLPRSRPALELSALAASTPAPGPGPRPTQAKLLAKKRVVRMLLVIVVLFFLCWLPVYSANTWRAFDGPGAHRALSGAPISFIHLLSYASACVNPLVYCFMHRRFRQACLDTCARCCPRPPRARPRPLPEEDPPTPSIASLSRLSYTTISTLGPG
The experiment in a line: displacement of specific 125I-CCK from guinea pig brain (CCK-B receptor binding). As for the experimental part:
The CCK-A and CCK-B antagonising activity of the compounds described herein was evaluated using the assays described in published European patent application no. 0514133. The method essentially involves determining the concentration of the test compound required to displace 50% of the specific ^125 I-CCK from rat pancreas (CCK-A) or guinea pig brain (CCK-B). The data in Table 1 were obtained for compounds of the Examples.

The target in another assay is T2, CCK-A (Rattus norvegicus, UniProt P30551).
T2 sequence (P30551 1-444): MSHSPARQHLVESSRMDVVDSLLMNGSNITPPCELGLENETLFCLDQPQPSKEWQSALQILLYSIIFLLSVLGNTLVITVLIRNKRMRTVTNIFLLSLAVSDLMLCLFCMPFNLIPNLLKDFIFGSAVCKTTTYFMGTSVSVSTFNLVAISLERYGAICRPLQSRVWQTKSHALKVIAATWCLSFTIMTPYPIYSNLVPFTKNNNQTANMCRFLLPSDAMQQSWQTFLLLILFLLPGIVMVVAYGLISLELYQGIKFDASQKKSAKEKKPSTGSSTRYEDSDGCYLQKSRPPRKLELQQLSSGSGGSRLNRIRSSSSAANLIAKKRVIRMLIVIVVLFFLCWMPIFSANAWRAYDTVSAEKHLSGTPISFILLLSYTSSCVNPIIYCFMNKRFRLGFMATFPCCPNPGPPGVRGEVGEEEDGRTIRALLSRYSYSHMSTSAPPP
The experiment in a line: biochemical. Format: binding. The note with it: rat pancreas (CCK-A), 125I-CCK. As for the experimental part: The CCK-A and CCK-B antagonising activity of the compounds described herein was evaluated using the assays described in published European patent application no. 0514133. The method essentially involves determining the concentration of the test compound required to displace 50% of the specific ^125 I-CCK from rat pancreas (CCK-A) or guinea pig brain (CCK-B).

[1] abbreviates: read-out: CCK RECEPTOR BINDING RESULTS IC50 125I-CCK Brain.
[2] abbreviates: read-out: CCK RECEPTOR BINDING RESULTS IC50 125I-CCK Pancreas.
Where [3] appears, read: CCK RECEPTOR BINDING RESULTS IC50 125I-CCK Brain.

Where a name gives a salt, the structure may show the parent alone. Read-outs that look alike come from different tables or passages of the source.

With `CCCN1C(=O)C(NC(=O)Nc2cccc(C)c2)N=C(N2CCC3(CC2)OCCO3)c2ccccc21` (racemic) [Example 1, N-[3(R,S)-2,3-Dihydro-5-(1,4-dioxa-8-azaspiro[4,5]decan-8-yl)-2-oxo-1-propyl-1H-1,4-benzodiazepin-3-yl]N'-[3-methylphenyl]urea], the IC50 was found to be 14.8 nM at CCK-B (setting [1]) and 724 nM on CCK-A (setting [2]). With `CCCN1C(=O)C(NC(=O)Nc2cccc(C)c2)N=C(N2CCC(=O)CC2)c2ccccc21` (racemic) [Example 2, N-[3(R,S)-2,3-Dihydro-2-oxo-5-(4-oxopiperidin-1-yl)-1-propyl-1H-1,4-benzodiazepin-3-yl]N'-[3-methylphenyl] urea], the IC50 on CCK-B (setting [1]) came out at 2.02 nM; at CCK-A (setting [2]), 871 nM. Turning to `CCCN1C(=O)C(NC(=O)Nc2cccc(C)c2)N=C(N2CCC(NCC(F)(F)F)CC2)c2ccccc21` (racemic) [Example 3, N-[3(R,S)-2,3-Dihydro-2-oxo-1-propyl-5-(4-[1,1,1-trifluoroethylamine]piperidin-1-yl)-1H-1,4-benzodiazepin-3-yl]N'-[3-methylphenyl]urea], the IC50 came out at 11.6 nM at CCK-B (setting [1]) and 544 nM on CCK-A (setting [2]). On the same counts, the results for `CN1C(=O)C(NC(=O)Nc2ccc3c(c2)CCC3)N=C(N2CCC(C)(C)CC2)c2ccccc21` (racemic) [Example 4, N-[3(R,S)-2,3-Dihydro-5-(4,4-dimethylpiperidin-1-yl)-1-methyl-2-oxo-1H-1,4-benzodiazepin-3-yl]N'-[indan-5-yl]urea] are 1.19 nM and 35 nM.

Regarding `Cc1cccc(NC(=O)NC2N=C(N3CCC(C)CC3)c3ccccc3N(C)C2=O)c1` (racemic) [Example 7, N-[3(R,S)-2,3-Dihydro-1-methyl-5-(4-methylpiperidin-1-yl)-2-oxo-1H-1,4-benzodiazepin-3-yl]N'-[3-methylphenyl]urea], the IC50 at CCK-B (setting [1]) was determined as 1.64 nM; on CCK-A (setting [2]), 7.74 nM. In the case of `Cc1cccc(NC(=O)NC2N=C(N3CCC(C)(C)CC3)c3ccccc3N(C)C2=O)c1` (racemic) [Example 9, N-[3(R,S)-2,3-Dihydro-5-(4,4-dimethylpiperidin-1-yl)-1-methyl-2-oxo-1H-1,4-benzodiazepin-3-yl]N'-[3-methylphenyl]urea], the IC50 on CCK-B (setting [1]) is 0.21 nM; on CCK-A (setting [2]), 8.97 nM. On the same counts, the results for `COC1CCN(C2=NC(NC(=O)Nc3cccc(C)c3)C(=O)N(C)c3ccccc32)CC1` (racemic) [Example 11, N-[3(R,S)-2,3-Dihydro-5-(4-methoxypiperidin-1-yl)-1-methyl-2-oxo-1H-1,4-benzodiazepin-3-yl]N'-[3-methylphenyl]urea] are 4.22 nM and 25.2 nM. For the compound `CCCN1C(=O)C(NC(=O)Nc2cccc(C)c2)N=C(N2CCC(C)CC2)c2ccccc21` (racemic) [Example 17, N-[3(R,S)-2,3-Dihydro-5-(4-methylpiperidin-1-yl)-2-oxo-1-propyl-1H-1,4-benzodiazepin-3-yl]N'-[3-methylphenyl]urea], the IC50 at CCK-B (setting [1]) was 0.2 nM; on CCK-A (setting [2]), 27.2 nM. Turning to `Cc1cccc(NC(=O)NC2N=C(N3CCC(C)(C)CC3)c3ccccc3N(CC(F)(F)F)C2=O)c1` (racemic) [Example 27, N-[3(R,S)-2,3-Dihydro-5-(4,4,dimethylpiperidin-1-yl)-2-oxo-1-(2,2,2-trifluoroethyl)-1H-1,4-benzodiazepin-3-yl]N'-(3-methylphenyl) urea], the IC50 on CCK-B (setting [1]) is 33 nM; on CCK-A (setting [2]), 15 nM.

In the case of `Cc1cccc(NC(=O)NC2N=C(N3CC4CCC(CC4)C3)c3ccccc3N(C)C2=O)c1` (racemic) [Example 31, N-[3(R,S)-5-(3-Azabicyclo[3,2,2]nonan-3-yl)-2,3-dihydro-1-methyl-2-oxo-1H-1,4-benzodiazepin-3-yl]-N'-[3-methylphenyl]urea], the figures for the half-inhibitory concentration (IC50) on CCK-B (setting [3]) and on CCK-A (CCK RECEPTOR BINDING RESULTS IC50 125I-CCK Pancreas) were 0.53 nM and 20 nM, respectively.

Consider `CN1C(=O)C(NC(=O)Nc2cccc(F)c2)N=C(N2CC3CCC(CC3)C2)c2ccccc21` (racemic) [Example 35, N-[3(R,S)-5-(3-Azabicyclo[3,2,2]nonan-3-yl)-2,3-dihydro-1-methyl-2-oxo-1H-1,4-benzodiazepin-3-yl]-N'-[3-fluorophenyl]urea], for which the values for the IC50 on CCK-B (setting [3]) and on CCK-A (setting [2]) were 0.82 nM and 39.6 nM, respectively. For `Cc1cccc(NC(=O)NC2N=C(N3CC4CCC(C4)C3)c3ccccc3N(C)C2=O)c1` (racemic) [Example 38, N-[3(R,S)-5-(3-Azabicyclo[3,2,1]octan-3-yl)-2,3-dihydro-1-methyl-2-oxo-1H-1,4-benzodiazepin-3-yl]-N'-[3-methylphenyl]urea], the IC50 on CCK-B (setting [1]) was determined as 0.71 nM; on CCK-A (setting [2]), 7.93 nM.

For `CN1C(=O)C(NC(=O)Nc2cccc(C(F)(F)F)c2)N=C(N2CC3CCC(CC3)C2)c2ccccc21` (racemic) [Example 42, N-[3(R,S)-5-(3-Azabicyclo[3,2,2]nonan-3-yl)-2,3-dihydro-1-methyl-2-oxo-1H-1,4-benzodiazepin-3-yl]-N'-[3-trifluoromethyl-phenyl]urea], the IC50 worked out at 1.79 nM on CCK-B (setting [3]) and 80.4 nM at CCK-A (setting [2]). With `CCCN1C(=O)C(NC(=O)Nc2cccc(C)c2)N=C(N2CC3CCC(C2)N3C)c2ccccc21` (racemic) [Example 43, N-[3(R,S)-2,3-Dihydro-5-(8-methyl-3,8-diazabicyclo[3,2,1]octan-3-yl)-2-oxo-1-propyl-1H-1,4-benzodiazepin-3-yl]-N'-[3-methylphenyl]urea], the values for the IC50 on CCK-B (setting [3]) and on CCK-A (setting [2]) were 48.3 nM and greater than 3000 nM, respectively. For the compound `Cc1ccc(NC(=O)NC2N=C(N3CC4CCC(CC4)C3)c3ccccc3N(C)C2=O)cc1F` (racemic) [Example 44, N-(3(R,S)-5-(3-Azabicyclo[3,2,2]nonan-3-yl)-2,3-dihydro-1-methyl-2-oxo 1H-1,4-benzodiazepin-3-yl]-N'-[3-fluoro-4-methylphenyl]urea], the IC50 at CCK-B (setting [3]) amounted to 0.52 nM; at CCK-A (setting [2]) it was 70.2 nM.

On to `CN1C(=O)C(NC(=O)Nc2cccc(I)c2)N=C(N2CC3CCC(CC3)C2)c2ccccc21` (racemic) [Example 47, N-[3(R,S)-5-(3-Azabicyclo[3,2,2]nonan-3-yl)-2,3-dihydro-1-methyl-2-oxo-1H-1,4-benzodiazepin-3-yl]-N'-[3-iodophenyl]urea], for which the values for the IC50 on CCK-B (setting [3]) and on CCK-A (setting [2]) were 1.01 nM and 26.6 nM, respectively. Regarding `CN1C(=O)C(NC(=O)Nc2ccccc2)N=C(N2CC3CCC(CC3)C2)c2ccccc21` (racemic) [Example 50, N-[3(R,S)-5-(3-Azabicyclo[3,2,2]nonan-3-yl)-2,3-dihydro-1-methyl-2-oxo-1H-1,4-benzodiazepin-3-yl]-N'-[phenyl]urea], the figures for the IC50 at CCK-B (setting [3]) and on CCK-A (setting [2]) were 3.9 nM and 10 nM, respectively. In the case of `Cc1cccc(NC(=O)NC2N=C(N3CC4CCC3CC4)c3ccccc3N(C)C2=O)c1` (racemic) [Example 51, N-[3(R,S)-5-(2-Azabicyclo[2,2,2]octan-2-yl)-2,3-dihydro-1-methyl-2-oxo-1H-1,4-benzodiazepin-3-yl]-N'-[3-methylphenyl]urea], the IC50 on CCK-B (setting [1]) was 5.49 nM; on CCK-A (setting [2]), 28.5 nM. In the case of `Cc1cc(NC(=O)NC2N=C(N3CC4CCC(CC4)C3)c3ccccc3N(C)C2=O)ccc1F` (racemic) [Example 52, N-[3(R,S)-5-(3-Azabicyclo[3,2,2]nonan-3-yl)-2,3-dihydro-1-methyl-2-oxo-1H-1,4-benzodiazepin-3-yl)-N'-[4-fluoro-3-methylphenyl]urea], the IC50 on CCK-B (setting [3]) is 0.25 nM; at CCK-A (setting [2]) it was 18.5 nM. For `Cc1cccc(NC(=O)NC2N=C(N3CC4CCC(CC4)C3)c3ccccc3N(C)C2=O)c1` (single isomer, unassigned; (-)) [Example 33, (-)-N-[5-(3-Azabicyclo[3,2,2]nonan-3-yl)-2,3-dihydro-1-methyl-2-oxo-1H-1,4-benzodiazepin-3-yl]-N'-[3-methylphenyl]urea Hydrochloride], the IC50 on CCK-B (setting [3]) was found to be 0.1 nM.

As usually defined, the IC50 is the concentration that gives 50% inhibition.
